According to publication PMC9833666, “Designing and identifying β-hairpin peptide macrocycles with antibiotic potential” (Science Advances, 2023):
Bridge positions count the residues as written; N and C are the ends. Peptide text beside a SMILES is read from it.

Tested on: Escherichia coli W3110
Assay type: cell-based
Conditions: for Ec W3110 MIC MH: E. coli W3110, MH medium; for Ec W3110 MIC RPMI: E. coli W3110, RPMI medium

SMILES: CC[C@H](C)[C@@H]1NC(=O)[C@H](CCCNC(=N)N)NC(=O)[C@H](C(C)C)NC(=O)[C@H](CCCNC(=N)N)NC(=O)[C@@H](N)CSSC[C@@H](C(=O)O)NC(=O)[C@H](CCC(=O)O)NC(=O)[C@H](C(C)C)NC(=O)[C@H](CCC(N)=O)NC(=O)[C@H](CC(C)C)NC(=O)[C@H](CCCCN)NC(=O)[C@H](CC(C)C)NC(=O)[C@H](CCCNC(=N)N)NC(=O)CNC(=O)[C@H](CO)NC(=O)[C@H](CCCNC(=N)N)NC(=O)[C@H](CC(N)=O)NC(=O)[C@H](CC(N)=O)NC(=O)[C@H](C(C)C)NC(=O)[C@H](CC(N)=O)NC1=O [SyRC-14] (H-CRVRINVNNRSGRLKLQVEC-OH; disulfide 1-20)
- W3110 MIC: >256 µg/mL

SMILES: CC[C@H](C)[C@@H]1NC(=O)[C@H](CCCNC(=N)N)NC(=O)[C@H](C(C)C)NC(=O)[C@H](CCCNC(=N)N)NC(=O)[C@@H](N)CSSC[C@@H](C(=O)O)NC(=O)[C@H](CCC(N)=O)NC(=O)[C@H](C(C)C)NC(=O)[C@H](CCC(N)=O)NC(=O)[C@H](CC(C)C)NC(=O)[C@H](CCCCN)NC(=O)[C@H](CC(C)C)NC(=O)[C@H]([C@@H](C)O)NC(=O)CNC(=O)CNC(=O)[C@H](CCCNC(=N)N)NC(=O)[C@H](CC(N)=O)NC(=O)[C@H](CC(=O)O)NC(=O)[C@H](C(C)C)NC(=O)[C@H](CC(N)=O)NC1=O [SyRC-11] (H-CRVRINVDNRGGTLKLQVQC-OH; disulfide 1-20)
- W3110 MIC: >256 µg/mL

SMILES: CC[C@H](C)[C@@H]1NC(=O)[C@H](CCCNC(=N)N)NC(=O)[C@H](CC(C)C)NC(=O)[C@@H](N)CSSC[C@@H](C(=O)O)NC(=O)[C@H](C(C)C)NC(=O)[C@H](CCC(N)=O)NC(=O)[C@H](C(C)C)NC(=O)[C@H]([C@@H](C)O)NC(=O)[C@H]([C@@H](C)CC)NC(=O)[C@H](CCCNC(=N)N)NC(=O)[C@H](C(C)C)NC(=O)CNC(=O)CNC(=O)[C@H](CCCNC(=N)N)NC(=O)[C@H](CCCNC(=N)N)NC(=O)[C@H](CC(N)=O)NC(=O)[C@H](CC(N)=O)NC(=O)[C@H](C(C)C)NC(=O)[C@H](CCCNC(=N)N)NC1=O [SyRA-2] (H-CLRIRVNNRRGGVRITVQVC-OH; disulfide 1-20)
- W3110 MIC: >256 µg/mL

SMILES: CC[C@H](C)[C@@H]1NC(=O)[C@H](CC(N)=O)NC(=O)[C@H]([C@@H](C)CC)NC(=O)[C@H](CCCNC(=N)N)NC(=O)[C@H](C(C)C)NC(=O)[C@H](CCCNC(=N)N)NC(=O)[C@@H](N)CSSC[C@@H](C(=O)O)NC(=O)[C@H](CCC(N)=O)NC(=O)[C@H](CC(C)C)NC(=O)[C@H](CCC(N)=O)NC(=O)[C@H](CC(C)C)NC(=O)[C@H](CCCCN)NC(=O)[C@H](C(C)C)NC(=O)[C@H](CCCNC(=N)N)NC(=O)[C@H](CCCNC(=N)N)NC(=O)[C@H](CCCNC(=N)N)NC(=O)CNC(=O)[C@H](CC(N)=O)NC(=O)[C@H](CC(N)=O)NC1=O [SySA-7] (H-CRVRININNGRRRVKLQLQC-OH; disulfide 1-20; N-terminus and C-terminus assumed)
- Ec W3110 MIC MH: 256 µg/mL
- Ec W3110 MIC RPMI: 32 µg/mL
- W3110 MIC MH: 256 µg/mL
- W3110 MIC RPMI: 32 µg/mL

SMILES: CC[C@H](C)[C@@H]1NC(=O)[C@H]([C@@H](C)O)NC(=O)[C@H](CC(C)C)NC(=O)[C@@H](N)CSSC[C@@H](C(=O)O)NC(=O)[C@H](C(C)C)NC(=O)[C@H](CCC(=O)O)NC(=O)[C@H](C(C)C)NC(=O)[C@H](CO)NC(=O)[C@H](C(C)C)NC(=O)[C@H](CCCCN)NC(=O)[C@H](C(C)C)NC(=O)[C@H](CCCNC(=N)N)NC(=O)[C@H](CO)NC(=O)[C@H](CCCNC(=N)N)NC(=O)[C@H](CCCNC(=N)N)NC(=O)[C@H](CC(=O)O)NC(=O)[C@H](CC(=O)O)NC(=O)[C@H](CC(C)C)NC(=O)[C@H](CCCNC(=N)N)NC1=O [SyRA-1] (H-CLTIRLDDRRSRVKVSVEVC-OH; disulfide 1-20)
- W3110 MIC: >256 µg/mL

SMILES: CC[C@H](C)[C@@H]1NC(=O)[C@H]([C@@H](C)O)NC(=O)[C@H](C(C)C)NC(=O)[C@@H](N)CSSC[C@@H](C(=O)O)NC(=O)[C@H](C(C)C)NC(=O)[C@H](CCC(=O)O)NC(=O)[C@H](C(C)C)NC(=O)[C@H]([C@@H](C)O)NC(=O)[C@H](C(C)C)NC(=O)[C@H](CCCCN)NC(=O)[C@H](C(C)C)NC(=O)CNC(=O)CNC(=O)[C@H](CCCNC(=N)N)NC(=O)CNC(=O)[C@H](CC(N)=O)NC(=O)[C@H](CC(=O)O)NC(=O)[C@H](C(C)C)NC(=O)[C@H](CCCNC(=N)N)NC1=O [SyRA-8] (H-CVTIRVDNGRGGVKVTVEVC-OH; disulfide 1-20)
- W3110 MIC: >256 µg/mL

SMILES: CC[C@H](C)[C@@H]1NC(=O)[C@H](CCCNC(=N)N)NC(=O)[C@H](C(C)C)NC(=O)[C@H](CCCNC(=N)N)NC(=O)[C@H](CCCNC(=N)N)NC(=O)[C@H](CCCNC(=N)N)NC(=O)[C@H](CCCNC(=N)N)NC(=O)[C@H](CC(N)=O)NC(=O)[C@H](CC(N)=O)NC(=O)[C@H](C(C)C)NC(=O)[C@H](CCCNC(=N)N)NC(=O)[C@H](C(C)C)NC(=O)[C@H]([C@@H](C)O)NC(=O)[C@H](C(C)C)NC(=O)[C@@H](N)CSSC[C@@H](C(=O)O)NC(=O)[C@H](C(C)C)NC(=O)[C@H](CCC(N)=O)NC(=O)[C@H](C(C)C)NC(=O)[C@H](CO)NC1=O [SySA-11] (H-CVTVRVNNRRRRVRISVQVC-OH; disulfide 1-20; N-terminus and C-terminus assumed)
- Ec W3110 MIC MH: 64 µg/mL
- Ec W3110 MIC RPMI: 16 µg/mL
- W3110 MIC MH: 64 µg/mL
- W3110 MIC RPMI: 16 µg/mL

SMILES: CC[C@H](C)[C@@H]1NC(=O)[C@H](CC(N)=O)NC(=O)[C@H](C(C)C)NC(=O)[C@H](CCCCN)NC(=O)[C@H]([C@@H](C)CC)NC(=O)[C@H](CCCNC(=N)N)NC(=O)[C@@H](N)CSSC[C@@H](C(=O)O)NC(=O)[C@H](CCC(=O)O)NC(=O)[C@H](CC(C)C)NC(=O)[C@H](CCC(=O)O)NC(=O)[C@H](CC(C)C)NC(=O)[C@H](CCCNC(=N)N)NC(=O)[C@H](CC(C)C)NC(=O)[C@H](CCCNC(=N)N)NC(=O)[C@H](CCCNC(=N)N)NC(=O)[C@H](CO)NC(=O)[C@H](CCCNC(=N)N)NC(=O)[C@H](CC(=O)O)NC(=O)[C@H](CC(=O)O)NC1=O [SyRC-8] (H-CRIKVNIDDRSRRLRLELEC-OH; disulfide 1-20)
- W3110 MIC: >256 µg/mL
